Results taken from the Kinase Knowledgebase extract (Sharma et al. 2016).

How the values were obtained:
CDK2 [1] = biological target: CDK2 (UniProt P24941); assay: Enzyme Assay
CDK2 [2] = biological target: CDK2 (UniProt P24941); assay: Enzyme Assay; remark: listed apart in the source

| IC50 (CDK2 [1]) | IC50 (CDK2 [2]) | Structure (SMILES) |
| --- | --- | --- |
| < 20 µM | < 20 µM | Cc1nn(C)c(C)c1CNC(=O)c1n[nH]cc1NC(=O)c1c(F)cccc1F |
| < 20 µM | < 20 µM | COc1ccccc1CNC(=O)c1n[nH]cc1NC(=O)c1c(F)cccc1F |
| < 20 µM | < 20 µM | Cc1cc(CNC(=O)c2n[nH]cc2NC(=O)c2c(F)cccc2F)no1 |
| < 20 µM | < 20 µM | O=C(NCC1CCCO1)c1n[nH]cc1NC(=O)c1c(F)cccc1F (configuration not stated) |
| < 20 µM | < 20 µM | O=C(NCc1ccncc1)c1n[nH]cc1NC(=O)c1c(F)cccc1F |
|  | < 20 µM | Cc1ccc(C(=O)Nc2c[nH]nc2C(=O)NC2CCN(C)CC2)cc1 |
|  | < 20 µM | CC(C)(C)C1CCC(NC(=O)c2n[nH]cc2NC(=O)c2ccc(CN3CCOCC3)o2)CC1 (configuration not stated) |
|  | < 20 µM | O=C(Nc1c[nH]nc1C(=O)N[C@H]1CC[C@H](O)CC1)Nc1c(F)cccc1F |
|  | < 20 µM | CN1CCC(NC(=O)Nc2c[nH]nc2C(=O)N[C@H]2CC[C@H](O)CC2)CC1 |
|  | < 20 µM | C[N+]1([O-])CCC(NC(=O)c2n[nH]cc2NC(=O)c2c(F)cccc2F)CC1 (configuration not stated) |
|  | < 20 µM | O=C(Nc1c[nH]nc1C(=O)NC1CCNCC1)c1cc(F)cc(F)c1 |
|  | < 20 µM | O=C(NC1CCNCC1)c1n[nH]cc1NC(=O)c1c(F)cccc1Cl |
|  | < 20 µM | COCCN1CCC(NC(=O)c2n[nH]cc2NC(=O)c2c(Cl)cccc2Cl)CC1 |
|  | < 20 µM | CS(=O)(=O)N1CCC(NC(=O)c2n[nH]cc2NC(=O)c2c(F)cccc2F)CC1 |
|  | < 20 µM | COc1cccc(F)c1C(=O)Nc1c[nH]nc1C(=O)NC1CCN(C)CC1 |
|  | < 20 µM | O=C(NCc1cccnc1)c1n[nH]cc1NC(=O)c1c(F)cccc1F |
|  | < 750 µM | O=C(Nc1c[nH]nc1C(=O)NC1CCNCC1)c1ccc(F)cc1 |
